Results published in paper PMC11020070, “Discovery of Protease-Activated Receptor 4 (PAR4)-Tethered Ligand Antagonists Using Ultralarge Virtual Screening” (ACS Pharmacology & Translational Science, 2024).
Read-outs that look alike come from different tables or passages of the source.

Tests used:
mouse PAR4 = target: T1, mouse PAR4 (Mus musculus, UniProt O88634); test: Mouse platelet activity assay, flow cytometry, γ-thrombin activation; format: cell-based
T1 construct: washed mouse platelets were prepared by collecting cardiac puncture blood; endogenous in cells; host or cells: washed mouse platelets (cardiac puncture blood)
T1 sequence (O88634 17-396): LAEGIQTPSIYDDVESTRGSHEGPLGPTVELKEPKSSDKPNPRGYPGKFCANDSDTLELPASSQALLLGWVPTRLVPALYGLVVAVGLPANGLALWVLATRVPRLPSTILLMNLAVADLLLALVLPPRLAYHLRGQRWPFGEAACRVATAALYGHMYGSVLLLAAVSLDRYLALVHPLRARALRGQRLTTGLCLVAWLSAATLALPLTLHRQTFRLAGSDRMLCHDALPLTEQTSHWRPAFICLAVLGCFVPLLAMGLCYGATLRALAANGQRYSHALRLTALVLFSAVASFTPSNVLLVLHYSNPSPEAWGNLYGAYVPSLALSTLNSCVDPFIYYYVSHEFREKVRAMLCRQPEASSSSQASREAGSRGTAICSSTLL
Description: For mouse PAR4 activity, washed mouse platelets were prepared by collecting cardiac puncture blood with 200 μL of 20 U/mL heparin. Following centrifugation at 1000 rpm for 15 min, plasma and buffy coat were collected into a separate tube and spiked with apyrase and PGE1. After centrifuging at 1000 rpm for 8 min, the platelet-rich plasma was transferred to another tube and centrifuged at 2200 rpm for 10 min to pellet the platelets. Platelets were resuspended in TBB + apyrase + PGE1. Platelets were counted and diluted in TBB to a final concentration of 2 × 10^7 platelets/mL. 50 μL of platelets were aliquoted to each tube preincubated with 50 μL of TBB with antibodies for mouse GPIIbIIIa and P-selectin (Emfret, Eibelstadt Germany) and either test compound antagonist or DMSO control. Platelets were activated with 316 nM γ-thrombin for 30 min. Samples were then fixed with 100 μL of 2% paraformaldehyde for 20 min and diluted with 300 μL of PBS. Flow cytometry counts are measured as for human platelets on a three-laser BD LSRFortessa (Becton Dickinson) and analyzed with FloJo software.

PAR4 = target: T2, PAR4 (Homo sapiens, UniProt Q96RI0); test: Human platelet activity assay, flow cytometry, γ-thrombin activation; format: cell-based; design: endogenous in cells; host or cells: washed human platelets from healthy volunteers
T2 sequence (Q96RI0 18-385): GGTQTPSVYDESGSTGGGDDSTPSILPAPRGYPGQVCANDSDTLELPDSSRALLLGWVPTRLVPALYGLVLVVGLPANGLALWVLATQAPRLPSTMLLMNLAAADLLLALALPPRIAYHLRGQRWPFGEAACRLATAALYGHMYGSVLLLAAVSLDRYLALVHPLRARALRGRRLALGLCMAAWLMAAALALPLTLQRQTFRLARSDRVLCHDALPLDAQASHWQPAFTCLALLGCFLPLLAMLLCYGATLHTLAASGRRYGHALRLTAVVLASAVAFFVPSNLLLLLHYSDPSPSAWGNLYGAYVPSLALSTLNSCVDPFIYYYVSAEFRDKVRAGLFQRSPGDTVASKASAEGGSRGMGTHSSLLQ
Description: To test the antagonistic effect of the compounds on PAR4, a flow cytometry assay of human platelets was employed. Each compound was screened at 10 μM in human platelets using flow cytometry for GPIIbIIIa activation (PAC1) and P-selectin (CD62p) expression as previously described.[4] Activation of GPIIbIIIa allows interaction with divalent fibrinogen or multivalent von Willebrand factor, leading to platelet aggregation.[41] PAR4 stimulation also triggers α-granule secretion containing P-selectin.[5] […] Platelets were treated with each test compound or vehicle control DMSO before activating with γ-thrombin (100 nM) or PAR4 agonist peptide mimetic (200 μM, “PAR4-AP” AYPGKF) for 30 min. γ-thrombin activates PAR4 but not PAR1.[42]
Activation of washed human platelets was monitored by flow cytometry for the detection of PAC1 (GPIIbIIIa activation) and CD62p (P-selectin expression) binding as previously described.[4] Human platelets were obtained from healthy volunteers. The Vanderbilt University Internal Review Board approved these studies. Informed consent was obtained from all individuals prior to the blood draw. 10 mL of whole blood was collected into 0.32% Na citrate. Platelet-rich plasma was collected after room-temperature centrifugation at 1100 rpm for 15 min on a Thermo Forma 400 centrifuge (Thermo Fisher, Waltham, MA). 1/10 volume of acid citrate dextrose (ACD) buffer was added to the collected supernatant and incubated for 10 min. After centrifugation at 2400 rpm for 10 min, the platelet pellet was resuspended in 1 mL Tyrode’s buffer (“TBB”: 15 mM HEPES, 0.33 mM NaH2PO4, pH 6.4, 138 mM NaCl, 2.7 mM KCl, 1 mM MgCl2, 5.5 mM dextrose, 0.1% bovine serum albumin). Platelets were collected, counted on a Z1 Coulter Particle Counter (Beckman Coulter, Brea, CA), and diluted in TBB to 1.5 × 10^7 platelets/mL. 60 uL of platelets were aliquoted to each tube and preincubated with 40 μL of TBB with antibodies PAC1 FITC (Becton Dickinson, Franklin Lakes NJ) and P-selectin PE (Becton Dickinson) and either test compound antagonist or DMSO vehicle control for 20 min. Platelets were then activated with 100 nM γ-thrombin or other agonists for 30 min. Samples were then fixed by adding 100 μL of 2% paraformaldehyde. After 30 min, samples were diluted by adding 300 μL of phosphate-buffered saline (PBS) and stored at 4C. Data were collected on a three-laser BD LSRFortessa (Becton Dickinson) and analyzed with FlowJo software (FlowJo LLC, Ashland, OR). The mean fluorescence intensity (geometric) of PE and FITC was determined from 30,000 events after compensation correction. Data were normalized to vehicle (DMSO) controls.
Compounds were screened for inhibition activity against human PAR4 using 100 nM γ-thrombin or 200 μM PAR4-AP in a single-point assay (10 μM test compound).

[1] = Table 4 summary, read-out: mouse PAR4 IC50
[2] = mouse platelets, 316 nM γ-thrombin, GPIIbIIIa (JonA), read-out: Mouse Platelets JonA IC50
[3] = mouse platelets, 316 nM γ-thrombin, P-selectin, read-out: Mouse Platelets P-Sel IC50
[4] = Table 4 summary, read-out: human PAR4 IC50
[5] = human platelets, 100 nM γ-thrombin, GPIIbIIIa activation (PAC1), read-out: Human Platelets PAC1 IC50
[6] = human platelets, 100 nM γ-thrombin, P-selectin (CD62p), read-out: Human Platelets P-Sel IC50

Structure (SMILES): COc1cccc(-c2nc(NC(=O)c3nn(-c4ccccc4)c4c3CCCC4)n[nH]2)c1 [Compound 32]
- IC50 (mouse PAR4; [1]): 269 nM
- IC50 (mouse PAR4; [2]): 269 nM
- IC50 (mouse PAR4; [3]): 298 nM
- IC50 (PAR4; [4]): 120 nM
- IC50 (PAR4; [5]): 120 nM
- IC50 (PAR4; [6]): 178 nM

Structure (SMILES): Cc1nc(NC(=O)c2cc(-c3ccccc3)n(-c3ccccc3)n2)n[nH]1 [Compound 7]
- inhibition at 10 µM (PAR4; 10 μM compound, 100 nM γ-thrombin, human platelets, read-out: inhibition of platelet activation against γ-thrombin): ~50%
- IC50 (PAR4; [5]): 2280 nM
- IC50 (PAR4; [6]): 2730 nM
- IC50 (PAR4; γ-thrombin activation of PAR4, human platelets, read-out: IC50, concentration-response curve (CRC)): 2300 nM

Structure (SMILES): O=C(Nc1n[nH]c(-c2ccc(F)cc2F)n1)c1nn(-c2ccccc2)c2c1CCCC2 [Compound 31]
- IC50 (mouse PAR4; [1]): 367 nM
- IC50 (mouse PAR4; [2]): 367 nM
- IC50 (mouse PAR4; [3]): 330 nM
- IC50 (PAR4; [5]): 117 nM
- IC50 (PAR4; [6]): 135 nM

Structure (SMILES): Cn1nc(C(=O)Nc2n[nH]c(-c3c(F)cccc3F)n2)cc1C1CC1 [Compound 12]
- IC50 (mouse PAR4; [2]): 401 nM
- IC50 (mouse PAR4; [3]): 370 nM
- IC50 (PAR4; [4]): 134 nM
- IC50 (PAR4; [5]): 134 nM
- IC50 (PAR4; [6]): 150 nM

Structure (SMILES): Cc1cc(C(=O)Nc2n[nH]c(OC(F)F)n2)nn1-c1ccccc1 [Compound 9]
- IC50 (mouse PAR4; [1]): 1450 nM
- IC50 (mouse PAR4; [2]): 1450 nM
- IC50 (mouse PAR4; [3]): 1450 nM
- IC50 (PAR4; [4]): 583 nM
- IC50 (PAR4; [5]): 583 nM
- IC50 (PAR4; [6]): 629 nM

Structure (SMILES): O=C(Nc1nc[nH]n1)c1nn(-c2ccccc2)c2c1CCC2 [Compound 17]
- IC50 (mouse PAR4; [1]): 3330 nM
- IC50 (mouse PAR4; [2]): 3330 nM
- IC50 (mouse PAR4; [3]): 4020 nM
- IC50 (PAR4; [4]): 502 nM
- IC50 (PAR4; [5]): 502 nM
- IC50 (PAR4; [6]): 599 nM
